Reference: US6232089A, “CD23 processing enzyme preparation” (SmithKline Beecham Corporation, priority 1998, dated 2001)
“Also recorded” adds a separate entry of the source. Where a name gives a salt, the structure may show the parent alone.

Tests used:
[1] = system: CD23 fragments; settings: 10-20 mM, cell cultures; cited from earlier work
[2] = system: CD23 processing enzyme; test: Photolabeling of membranes or solubilized membrane proteins containing the CD23 processing enzyme, 12% SDS-PAGE / 2-dimensional gel electrophoresis; format: binding; settings: for molecular weight range of photolabeled bands: 12% SDS-PAGE, ECL detection, several bands
Procedure: Compound 4 (Synthetic Example 17), Compound 5 (Synthetic Example 17a), Compound 6 (Synthetic Example 25), and Compound 7 (Synthetic Example 27) can also be used to photolabel membranes or solubilized membrane proteins containing the CD23 processing enzyme, using the same method described for compound 3. Analysis by 12% SDS-PAGE and ECL detection of biotinylated protein, using streptavidin-HRP detects several bands in the molecular weight range 50-65 kDa.
Up to 200 ug of membrane proteins in PBS were solubilized in 0.1 % NP-40 and photolabeled with 0.1 to 0.3 uM compound 4 or 1 uM compound 3 as described for compound 3 above. The sample was then dialyzed vs. 10 mM potassium phosphate pH 7.5, 0.1% NP-40, concentrated in a Centricon 10 (Amicon, Beverly Mass.), then made 8 M in urea, 2% in Triton X-100, 0. 8% in Pharmalyte 3-10 (Pharmacia) and 50 mM in DTT. After electrophoresis in both dimensions, the proteins were blotted to PVDF, and biotinylated proteins detected with streptavidin-HRP as described above. The majority of the minor biotinylated spots observed were in the molecular weight range 50-65 kDa and were acidic proteins with pH in the range 4.5-6.0.

[3] = system: CD23 processing enzyme; test: Solubilized membrane protein CD23 processing enzyme assay; format: biochemical, human; settings: concentration not given
[4] = system: CD23 processing enzyme; test: Membrane CD23 cleavage activity assay (sCD23 release from plasma membranes of RPMI 8866 cells); format: biochemical, human; settings: for IC50: membranes, read-out: IC50 for inhibition of CD23 processing (production of sCD23)
Procedure: Membrane CD23 cleavage activity assay:
Plasma membranes from RPMI 8866 cells, a human Epstein-Barr virus transformed B-cell (Sarfati et al., Immunology 60 (1987) 539-547), or a similar cell line expressing high levels of CD23 are purified using an aqueous extraction method. Cells resuspended in homogenization buffer (20 mM HEPES pH 7.4, 150 mM NaCl, 1.5 mM MgCl2, 1 mM DTT) are broken by N2 cavitation in a Parr bomb and the plasma membrane fraction mixed with other membranes recovered by centrifugation at 10,000×g. The light pellet is resuspended in 0.2 M potassium phosphate, pH 7.2 using 2 ml per 1-3 g wet cells and the nuclear pellet is discarded. The membranes are further fractionated by partitioning between Dextran 500 (6.4% w/w) and polyethylene glycol (PEG) 5000 (6.4% w/w) at 0.25 M sucrose in a total of 16 g per 10-15 mg membrane proteins (Morre and Morre, BioTechniques 7, 946-957 (1989)). The phases are separated by brief centrifugation at 1000×g and the PEG (upper) phase is collected, diluted 3-5 fold with 20 mM potassium phosphate buffer pH 7.4, and centrifuged at 100,000×g to recover membranes in that phase. The pellet is resuspended in phosphate-buffered saline and consists of 3-4 fold enriched plasma membranes as well as some other cell membranes (e.g. lysosomes, Golgi). The membranes are aliquoted and stored at -80° C. Fractionation at 6.6% Dextran/PEG yields plasma membranes enriched 10-fold.
The fractionated membranes are incubated at 37° C. for times up to 4 hours to produce fragments of CD23 which are separated from the membrane after quenching the assay with 5 uM compound 1 by centrifugation at 10,000×g. These CD23 fragments are consistent with those reported (Letellier et al, J Exp. Med. 172, 693-700 (1990)): MW, app 36-37 kDa as determined by 12% sodium dodecylsulfate-polyacrylamide electrophoresis (SDS-PAGE) of N-terminal sequence QKSQ; MW, app 33 kDa with N-terminal sequence LKSQ. Additional bands not sequenced: MW, app 28-29 kDa and a doublet at 25-26 kDa. These are detected by Western blot of the total protein in the incubation using a polyclonal antibody such as the polyclonal anti-CD23 antibody in The Binding Site (Birmingham, UK) enzyme-linked immunoassay (EIA) Bindazyme kit for the determination of soluble CD23. Following removal of the membrane by centrifugation or filtration in 0.2 micron filter plates (Durapore, Millpore), sCD23 can also be determined using the EIA kit from The Binding Site or a similar one utilizing MHM6 anti-CD23 mAb (Rowe et al., Int. J. Cancer, 29, 373-382 (1982)) or another anti-CD23 mAb as the capture antibody in a sandwich EIA. […] Samples were incubated at 37° C. for the varying times, quenched with compound 1, applied to 12% SDS-PAGE, and Western blotting on PVDF (Bio-Rad) membrane performed using standard methodology with a combination of BD4 (prepared as described in Biological example 2) and a polyclonal antibody which recognizes all soluble fragments as the primary antibody. The blot was developed by ECL, scanned using a BioImage system and quantitated using the Visage analysis package.
Inhibition of CD23 processing can also be determined by Western blot or by the 5 EIA (Elisa) method. The amount of soluble CD23 made by 0.5-5 ug membrane protein is measured either by quantitation of the Western blot as described using a Millipore BioImage system, or by EIA and compared to the amount made in the presence of various concentrations of inhibitors. Inhibitors are prepared in solutions of water or dimethylsulfoxide (DMSO) and the final DMSO concentration is not more than 2%. The enzyme activity of CD23 processing is inhibited by 1,10-phenanthroline (1 mM), and not by 1,7-phenanthroline (1 mM), PMSF (1 mM), E-64 (10 uM), pepstatin (10 uM), leupeptin (10 uM), or tosyl-leucylchloroketone (100 uM), and weakly by phosphoramidon (40% inhibition at 100 uM). The enzyme can heretofore best be described as a metalloprotease rather than a serine, cysteine or acid protease. […]

[5] = system: CD23 processing activity; test: Affinity chromatography with compound 8 on streptavidin-agarose; format: binding, human
Procedure: Affinity Chromatography with compound 8 (compound 28 in synthetic examples)
An affinity column was prepared with compound 8 on streptavidin-agarose beads (Pierce Chemical Co.) by overnight mixing of an estimated five equivalents of compound 8 with beads in 50 mM HEPES, pH 7.5, 0. 1% NP-40 (binding buffer). The column was washed with 20 volumes of this buffer and 20 volumes of 50 mM HEPES pH 7.5, 0.5% NP-40 in a syringe column, and re-equilibrated to binding buffer. An equivalent column with no compound 8 was also prepared. 150 ug of solubilized membranes from RPMI 8866 cells were applied to the both columns, washed with 3 ml binding buffer, 3 ml binding buffer with 0.1 M NaCl, and 3 ml binding buffer with 50 uM compound 2. Each 1 ml fraction was concentrated, diluted 10-fold and reconcentrated if compound 2 was present, and assayed as in biological example 2. For the column with no compound 8, CD23 processing activity was detected primarily in fractions 1-3, with a small amount in fractions 5 and 6.

[6] = 2-dimensional gel electrophoresis, 0.1 to 0.3 uM compound 4 or 1 uM compound 3

NC(=O)CI [iodoacetamide]
accumulation of 37 and 33 kDa CD23 fragments [1]: results in the accumulation
accumulation of the 25-27 kDa CD23 fragments [1]: prevents the accumulation

CC(C)(C)[C@H](NC(=O)[C@H](Cc1ccc(N=[N+]=[N-])cc1)[C@H](O)C(=O)NO)C(=O)NCCCCCCNC(=O)CCCC[C@@H]1SC[C@@H]2NC(=O)N[C@@H]21 [Compound 6, N'-[3S-Hydroxy-4-(N-hydroxyamino)-2R-(4-azidobenzyl)succinyl]-S-tert-leucine-N-(6-biotinoylaminohexyl)amide]
molecular weight range of photolabeled bands [2]: 50-65 kDa

CC(C)C[C@@H](C(=O)N[C@@H](Cc1ccccc1)C(=O)NCCCCCCNC(=O)CCCC[C@@H]1SC[C@@H]2NC(=O)N[C@@H]21)[C@H](CSCC(=NO)c1ccc(N=[N+]=[N-])cc1)C(=O)NO [Compound 4, N-[4-N' Hydroxyamino-3-(S)-3-[(2-[4-azidophenyl]-2-[hydroxyimino]ethyl)-thiomethyl]-2-(R)-2-(2-methylpropyl)succinyl]-S-phenylalanine-N'-(6biotinoylaminohexyl)amide]
molecular weight range of majority of minor biotinylated spots [2, 6]: 50-65 kDa
pH range of minor biotinylated spots (acidic proteins) [2, 6]: 4.5-6.0
molecular weight range of photolabeled bands [2]: 50-65 kDa

CNC(=O)[C@H](Cc1ccccc1)NC(=O)[C@H](CC(C)C)[C@H](CSc1cccs1)C(=O)NO [Compound 1, [4-(N-Hydroxyamino)-2-(R)-isobutyl-3-(S)-(2-thiophenethiomethyl)succinyl]-(S)-phenylalanine-N-methylamide, sodium salt]
inhibition of activity producing the 33 kDa fragment [3]: inhibited
inhibition of CD23 processing ([4]; concentration not given): inhibited
IC50 [4]: 100 ± 50 nM

c1cnc2c(c1)ccc1cccnc12 [1,10-phenanthroline]
inhibition of activity producing the 33 kDa fragment [3]: inhibition; also recorded: inhibited
inhibition of CD23 processing ([4]; 1 mM): inhibited

CC(C)C[C@@H](C(=O)N[C@@H](Cc1ccccc1)C(=O)NCCCCCCNC(=O)CCCC[C@@H]1SC[C@@H]2NC(=O)N[C@@H]21)[C@H](CSCc1ccc(C(=O)c2ccccc2)cc1)C(=O)NO [Compound 7, N-[(3-(S)-(4-benzoylbenzyl)thiomethyl-4-(N-Hydroxyamino)-2R-isobutyl)succinyl]-(S)-phenylalanine-N-(6-biotinoylaminohexyl)amide]
molecular weight range of photolabeled bands [2]: 50-65 kDa

Cc1ccc(S(=O)(=O)N[C@@H](CCCCN)C(=O)CCl)cc1 [TLCK]
inhibition of CD23 processing ([4]; concentration not given): not inhibited

C#CCSC[C@H](C(=O)NO)[C@@H](CC(C)C)C(=O)N[C@@H](Cc1ccccc1)C(=O)NCCCCCCNC(=O)CCCC[C@@H]1SC[C@@H]2NC(=O)N[C@@H]21 [Compound 8, N-[(3-(S)-propargylthiomethyl-4-(N-Hydroxyamino)-2R-isobutyl)succinyl]-(S)-phenylalanine-N-(6-biotinoylaminohexyl)amide]
fractions in which CD23 processing activity was detected, column with compound 8 ([5]; binding buffer, then 0.1 M NaCl, then 50 uM compound 2, fractions 1-9): only in fractions 7-9
inhibition of CD23 processing ([4]; concentration not given): inhibitor of CD23 cleavage activity

CC(C)C[C@H](CC(=O)NO)C(=O)N[C@@H](Cc1ccccc1)C(=O)NCc1ccccc1 [Compound 2]
elution of CD23 processing activity from affinity column with compound 8 ([5]; 50 uM compound 2): specifically eluted
inhibition of CD23 processing ([4]; concentration not given): weaker inhibitor
IC50 [4]: 2000 ± 1000 nM

CC(C)C[C@H](NP(=O)(O)O[C@@H]1O[C@@H](C)[C@H](O)[C@@H](O)[C@H]1O)C(=O)N[C@@H](Cc1c[nH]c2ccccc12)C(=O)O [phosphoramidon]
inhibition ([4]; 100 uM): 40%
inhibition of CD23 processing ([4]; 100 uM): weakly

CC(C)C[C@@H](C(=O)N[C@@H](Cc1ccccc1)C(=O)NCCCCCCNC(=O)CCCC[C@@H]1SC[C@@H]2NC(=O)N[C@@H]21)[C@H](CSCC(=O)c1ccc(N=[N+]=[N-])cc1)C(=O)NO [Compound 5, N-[4-Hydroxyamino-3-(S)-3-(4-azidophenacylthiomethyl)-2-(R)-2-(2-methylpropyl)succinyl]-S-phenylalanine-N'-(6-biotinoylaminohexyl)amide]
molecular weight range of photolabeled bands [2]: 50-65 kDa
